Assay [1] has as its target T1, Dopamine beta-hydroxylase (Bos taurus) (UniProt P15101).
T1 sequence (whole entry): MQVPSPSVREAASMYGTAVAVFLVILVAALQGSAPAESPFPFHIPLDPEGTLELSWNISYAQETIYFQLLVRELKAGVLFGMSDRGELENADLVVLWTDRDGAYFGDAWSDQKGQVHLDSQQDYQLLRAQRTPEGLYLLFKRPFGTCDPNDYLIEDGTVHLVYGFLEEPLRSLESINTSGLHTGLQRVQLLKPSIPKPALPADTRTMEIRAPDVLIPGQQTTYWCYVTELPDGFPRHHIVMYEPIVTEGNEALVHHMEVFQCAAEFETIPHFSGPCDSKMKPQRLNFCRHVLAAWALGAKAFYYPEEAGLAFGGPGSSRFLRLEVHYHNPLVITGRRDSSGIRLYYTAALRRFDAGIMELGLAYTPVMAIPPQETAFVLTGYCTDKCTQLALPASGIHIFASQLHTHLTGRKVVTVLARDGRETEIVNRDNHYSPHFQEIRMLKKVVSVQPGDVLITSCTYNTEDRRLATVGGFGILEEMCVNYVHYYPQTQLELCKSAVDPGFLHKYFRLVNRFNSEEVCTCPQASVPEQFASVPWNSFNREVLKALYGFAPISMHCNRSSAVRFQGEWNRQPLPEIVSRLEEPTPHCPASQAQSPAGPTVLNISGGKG
Put plainly: Percent inhibition against bovine dopamine beta-hydroxylase (DBH) at 10e-4 M concentration.

For assay [2], the target named is T1, Dopamine beta-hydroxylase (Bos taurus). Put plainly: Percent inhibition against bovine dopamine beta-hydroxylase (DBH) at 10e-5 M concentration.
For assay [3], the target named is T2, Dopamine beta-hydroxylase (Bos taurus, UniProt P15101).
T2 sequence (P15101 whole entry): T1 sequence (whole entry)
Briefly: Inhibitory activity was determined against bovine dopamine beta-hydroxylase (DBH).

The structures appear in SMILES notation.

Regarding `O=C(O)Cc1nccn1Cc1ccccc1`, the inhibition in assay [1] was 0%.
In assay [2], `Fc1cccc(Cc2cccnc2S)c1` registered an inhibition of 34%.
For `Fc1cc(F)cc(CN2CCN=C2S)c1`, in assay [3], the half-inhibitory concentration (IC50) was 1.4 µM.
The molecule `Sc1ncccc1Cc1ccccc1` registered an inhibition in assay [2] of 26%.
With `Fc1cc(F)cc(Cn2nc[nH]c2=S)c1`, the IC50 in assay [3] came to 6.2 µM.
As for `CSc1nccn1CCCc1ccc(O)cc1`, inhibition in assay [3] was half-maximal at 79 µM (IC50).
`Fc1cccc(CN2CCNC2=S)c1` registered an IC50 in assay [3] of 3.7 µM.
`NCc1nccn1Cc1ccc(O)cc1` returned an IC50 in assay [3] of 165 µM.
In turn, `Fc1cc(F)cc(Cc2cccnc2S)c1` yielded an IC50 in assay [3] of 13.4 µM. This IC50 lies about 12-fold lower than the previous one.
Turning to `O=C(O)Cc1nccn1Cc1ccc(O)cc1`, the inhibition in assay [1] was determined as 0%.
`Fc1cccc(Cn2ncnc2S)c1`: the IC50 in assay [3] is 15 µM.
The same measure, in the same setting: the figure for `Fc1cccc(Cn2cnnc2S)c1` is 1.9 µM; for `Fc1cc(F)cc(Cn2cccnc2=S)c1` it is 2.8 µM.
In the case of `O=C(O)c1nccn1Cc1ccc(O)cc1`, in assay [3], the half-inhibitory concentration (IC50) was 112 µM.
Consider `S=c1ncccn1Cc1ccccc1`, for which the inhibition in assay [2] is 5%.
On to `OCc1nccn1Cc1ccccc1`, for which, in assay [1], the inhibition was 0%.
The same measure, in the same setting: the figure for `Nc1nccn1Cc1ccc(O)cc1` is 4%.
In assay [3], `Fc1cc(F)cc(Cn2nnnc2S)c1` had an IC50 of 1.54 µM.
Same read-out and setting: for `Sc1nnnn1Cc1ccccc1` the value was 16 µM.
As for `S=C1NCCN1Cc1ccccc1`, the inhibition in assay [2] turned out to be 5%.
The molecule `Oc1c(F)cc(Cn2cnnc2S)cc1F` gave an IC50 in assay [3] of 0.035 µM.
Molecule `O=C(O)c1nccn1Cc1ccccc1` registered an IC50 in assay [3] of 57 µM.
`Sc1cnnn1Cc1ccccc1` displayed an inhibition in assay [2] of 0%.
In the case of `Sc1ncnn1Cc1ccccc1`, the IC50 in assay [3] is 75 µM.
As for `Oc1ccc(Cn2ccnc2)cc1`, in assay [1], the inhibition was 17%.
In turn, `O/N=C/c1nccn1Cc1ccccc1` came in with an inhibition in assay [1] of 10%.
Molecule `Fc1cccc(Cn2cccnc2=S)c1` showed an inhibition in assay [2] of 15%.

What is called inhibition is the relative decrease from the control value, in per cent. As a reminder, the IC50 is the midpoint of a concentration-inhibition curve.

For the origin of these results see ChEMBL document CHEMBL1124701, “Some benzyl-substituted imidazoles, triazoles, tetrazoles, pyridinethiones, and structural relatives as multisubstrate inhibitors of dopamine beta-hydroxylase. 4. Structure-activity relationships at the copper binding site” (J Med Chem, 1990).
